26 compounds from patent US9452980B2, “Substituted benzamides” (Hoffmann-La Roche Inc., priority 2009, dated 2016) can be followed below.

Assay [1] has as its target rat TAAR1 (Rattus norvegicus (Rat), UniProt Q923Y9). The assay is described as follows: Radioligand binding assay on rat TAAR1. The settings on record: read-out: Ki (μM) rat. The method in brief:
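Membranes from HEK293 cells stably expressing rat TAAR1, with Kd checked per batch by saturation. Competition with ³H-(S)-4-[(ethyl-phenyl-amino)-methyl]-4,5-dihydro-oxazol-2-ylamine, compounds 10 pM–10 μM in duplicate, 1 hr at 4 °C. Filtration then scintillation counting; nonspecific binding defined with 10 μM unlabeled ligand.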

The target of assay [2] is mouse TAAR1 (Mus musculus (Mouse), UniProt Q923Y8). The assay is described as follows: Radioligand binding assay on mouse TAAR1. The note with it: read-out: Ki (μM) mouse. An outline of the steps: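 Displacement of the tritiated oxazol-2-ylamine radioligand was measured by filtration and scintillation counting after 1 h incubation at 4 °C. Test concentrations ran 10 pM–10 μM in duplicate, with 10 μM cold ligand giving nonspecific binding. The receptor source was membranes of a stable mouse TAAR1 HEK293 line.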

Setting [3] is: mouse TAAR1, HEK-293 membranes, first value of cell mouse/rat.
Where [4] appears, read: rat TAAR1, HEK-293 membranes, second value of cell mouse/rat.

The structures appear in SMILES notation. Structures can show the parent of a compound that is named as a salt. Where two headings read alike, the source gives them in different places.

Sequence of mouse TAAR1 (Q923Y8 whole entry): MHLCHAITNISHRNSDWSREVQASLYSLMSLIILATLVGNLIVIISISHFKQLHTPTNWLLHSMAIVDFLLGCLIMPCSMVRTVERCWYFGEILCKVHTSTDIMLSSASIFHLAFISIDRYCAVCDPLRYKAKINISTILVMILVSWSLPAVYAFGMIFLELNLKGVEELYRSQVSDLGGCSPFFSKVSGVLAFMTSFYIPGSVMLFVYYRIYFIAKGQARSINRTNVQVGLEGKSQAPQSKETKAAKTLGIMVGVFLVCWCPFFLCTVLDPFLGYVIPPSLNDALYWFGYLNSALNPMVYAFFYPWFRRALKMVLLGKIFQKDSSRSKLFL
Sequence of rat TAAR1 (Q923Y9 whole entry): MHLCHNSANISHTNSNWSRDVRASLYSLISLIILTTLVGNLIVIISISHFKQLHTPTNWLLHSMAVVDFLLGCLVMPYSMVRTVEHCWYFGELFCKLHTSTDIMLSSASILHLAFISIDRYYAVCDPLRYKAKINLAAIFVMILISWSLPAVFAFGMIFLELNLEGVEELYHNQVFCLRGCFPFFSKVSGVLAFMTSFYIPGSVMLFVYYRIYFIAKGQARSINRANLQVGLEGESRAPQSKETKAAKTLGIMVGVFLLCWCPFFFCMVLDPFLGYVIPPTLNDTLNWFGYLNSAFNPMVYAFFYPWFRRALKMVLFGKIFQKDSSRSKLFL

`O=C(Nc1ccc([C@@H]2CNCCO2)cc1)c1ccc(C(F)(F)F)nc1` [Example 283, (R)—N-(4-(Morpholin-2-yl)phenyl)-6-(trifluoromethyl)nicotinamide hydrochloride]: the Ki (as a rule, a dissociation constant, usually derived from enzyme kinetics or from competition with a known ligand) in assay [1] is 0.0059 µM; in assay [2] (setting [3]) it was 0.006 µM.
For `O=C(NCc1ccc([C@H]2CNCCO2)cc1)c1cccc(Cl)c1` [Example 318, (S)-3-Chloro-N-(4-(morpholin-2-yl)benzyl)benzamide hydrochloride], the Ki in assay [1] (setting [4]) turned out to be 0.0312 µM; in assay [2] (setting [3]), 12900 µM.
In the case of `O=C(Nc1ccc(C2CCNC2)cc1)OC1CCC(F)(F)CC1` (racemic) [Example 45, (RS)-(4-Pyrrolidin-3-yl-phenyl)-carbamic acid 4,4-difluoro-cyclohexyl ester], the Ki in assay [1] (setting [4]) was found to be 0.0077 µM; in assay [2] (setting [3]), 0.0131 µM.
In the same order, the values of `O=C(Nc1ccc(C2CCNC2)nc1)c1ccc(Cl)cc1` (racemic) [Example 140, (RS)-4-Chloro-N-(6-pyrrolidin-3-yl-pyridin-3-yl)-benzamide] are 0.0358 µM and 0.245 µM.
On to `O=C(Nc1ccc([C@@H]2CCCNC2)cc1)c1cnc(Cl)cn1` [Example 238, 5-Chloro-pyrazine-2-carboxylic acid ((S)-4-piperidin-3-yl-phenyl)-amide hydrochloride], for which the Ki in assay [1] (setting [4]) turned out to be 0.0056 µM; in assay [2], 1.12 µM.
Regarding `O=C(Nc1ccc([C@H]2CNCCO2)cc1)Nc1ccc(C(F)(F)F)cc1` [Example 312, (S)-1-(4-(Morpholin-2-yl)phenyl)-3-(4-(trifluoromethyl)phenyl)urea hydrochloride], the Ki amounted to 0.0011 µM in assay [1] and 0.0007 µM in assay [2] (setting [3]).
Turning to `O=C(Nc1ccc(C2CNCCO2)cc1)NC1CCCCC1` (racemic) [Example 307, (RS)-1-cyclohexyl-3-(4-(morpholin-2-yl)phenyl)urea hydrochloride], the values for the Ki in assay [1] (setting [4]) and in assay [2] (setting [3]) were 0.0305 µM and 0.0778 µM, respectively.
For the compound `O=C(Nc1ccc(C2CCCNC2)cc1)c1ccc(F)cn1` (racemic) [Example 180, (RS)-5-Fluoro-N-(4-(piperidin-3-yl)phenyl)picolinamide hydrochloride], the figures for the Ki in assay [1] (setting [4]) and in assay [2] (setting [3]) were 0.0131 µM and 0.0507 µM, respectively.
On to `O=C(Nc1ccc([C@H]2CNCCO2)cc1)c1ccc(OCC(F)(F)F)nc1` [Example 269, (S)—N-(4-(Morpholin-2-yl)phenyl)-6-(2,2,2-trifluoroethoxy)nicotinamide hydrochloride], for which the inhibition constant (Ki) was found to be 0.003 µM in assay [1] and 0.0099 µM in assay [2].
As for `O=C(Nc1ccc([C@H]2CNCCO2)cc1)c1ccc(Cl)cc1` [Example 144, 4-Chloro-N—((S)-4-morpholin-2-yl-phenyl)-benzamide hydrochloride], the figures for the Ki in assay [1] and in assay [2] were 0.0011 µM and 0.0188 µM, respectively.
For the compound `CN1CCN(c2ccc(NC(=O)Nc3ccc(Cl)c(Cl)c3)cc2)CC1` [Example 2, 1-(3,4-Dichloro-phenyl)-3-[4-(4-methyl-piperazin-1-yl)-phenyl]-urea], the inhibition constant Ki in assay [1] (setting [4]) came to 0.001 µM; in assay [2], 0.0006 µM.
Regarding `O=C(Nc1ccc(CC2CCCN2)cc1)c1ccc(Cl)cc1` (racemic) [Example 107, (RS)-4-Chloro-N-(4-pyrrolidin-2-ylmethyl-phenyl)-benzamide hydrochloride], the Ki is 0.0445 µM in assay [1] (setting [4]) and 0.0027 µM in assay [2] (setting [3]).
In the case of `Cc1ccc(C(=O)Nc2ccc(C3CCCNC3)cc2)cc1` (racemic) [Example 185, (RS)-4-Methyl-N-(4-(piperidin-3-yl)phenyl)benzamide hydrochloride], the Ki in assay [1] (setting [4]) was found to be 0.0026 µM; in assay [2] (setting [3]), 0.0333 µM.
For `O=C(Nc1ccc(CCC2CCCN2)cc1)c1ccc(C(F)(F)F)cc1` (racemic) [Example 155, (RS)—N-[4-(2-Pyrrolidin-2-yl-ethyl)-phenyl]-4-trifluoromethyl-benzamide hydrochloride], in that order: 0.0009 µM and 0.0107 µM.
`O=C(Nc1ccc([C@@H]2CCNC2)cc1)c1ccc(OCC(F)(F)F)nc1` [Example 205, (S)—N-(4-(Pyrrolidin-3-yl)phenyl)-6-(2,2,2-trifluoroethoxy)nicotinamide hydrochloride]: the inhibition constant Ki is 0.0035 µM in assay [1] (setting [4]) and 0.0034 µM in assay [2] (setting [3]).
With `O=C(Nc1ccc([C@@H]2CCCNC2)cc1)c1ccc(Cl)nc1` [Example 162, (S)-6-Chloro-N-(4-(piperidin-3-yl)phenyl)nicotinamide hydrochloride], the inhibition constant (Ki) came to 0.0092 µM in assay [1] (setting [4]) and 0.231 µM in assay [2].
For `O=C(Nc1ccc([C@H]2CNCCO2)cc1)c1ccc(Cl)nc1` [Example 208, (S)-6-Chloro-N-(4-(morpholin-2-yl)phenyl)nicotinamide hydrochloride], the Ki was determined as 0.0044 µM in assay [1] and 0.0762 µM in assay [2] (setting [3]).
As to `O=C(Nc1ccc(C2CCNC2)cc1)c1ccc(Cl)c(Cl)c1` (racemic) [Example 56, (RS)-3,4-Dichloro-N-(4-pyrrolidin-3-yl-phenyl)-benzamide hydrochloride], the Ki amounted to 0.0018 µM in assay [1] (setting [4]) and 0.0008 µM in assay [2] (setting [3]).
As to `Cc1cc(C(=O)Nc2ccc([C@H]3CNCCO3)cc2)cc(Cl)n1` [Example 286, (S)-2-Chloro-6-methyl-N-(4-(morpholin-2-yl)phenyl)isonicotinamide hydrochloride], the Ki in assay [1] (setting [4]) was 0.0044 µM; in assay [2] it was 0.0222 µM.
`O=C(Nc1ccc(CCC2CCCCN2)cc1)c1ccc(Cl)c(Cl)c1` (racemic) [Example 176, (RS)-3,4-Dichloro-N-(4-(2-(piperidin-2-yl)ethyl)phenyl)benzamide hydrochloride]: the figures for the Ki in assay [1] (setting [4]) and in assay [2] (setting [3]) were 0.001 µM and 0.0253 µM, respectively.
With `O=C(Nc1ccc([C@@H]2CCCNC2)cc1)c1ccc(Cl)cc1` [Example 112, 4-Chloro-N—((S)-4-piperidin-3-yl-phenyl)-benzamide], the Ki in assay [1] (setting [4]) turned out to be 0.0018 µM; in assay [2] (setting [3]) it was 0.211 µM.
As for `O=C(NCc1ccc([C@@H]2CNCCO2)cc1)c1ccc(OCC(F)(F)F)nc1` [Example 316, (R)—N-(4-(Morpholin-2-yl)benzyl)-6-(2,2,2-trifluoroethoxy)nicotinamide hydrochloride], the inhibition constant Ki in assay [1] (setting [4]) stood at 0.0121 µM; in assay [2] (setting [3]), 0.273 µM.
As for `Cc1ccc(CNC(=O)Nc2ccc(C3CNCCO3)cc2)cc1` (racemic) [Example 306, (RS)-1-(4-Methylbenzyl)-3-(4-(morpholin-2-yl)phenyl)urea hydrochloride], the inhibition constant (Ki) was 0.0038 µM in assay [1] (setting [4]) and 0.0266 µM in assay [2] (setting [3]).
On to `O=C(Nc1ccc([C@@H]2CCCNC2)cc1)c1ccc(Cl)c(Cl)c1` [Example 152, 3,4-Dichloro-N—((S)-4-piperidin-3-yl-phenyl)-benzamide hydrochloride], for which the Ki in assay [1] (setting [4]) was 0.0003 µM; in assay [2], 0.0086 µM.
As to `CSc1ccc(C(=O)Nc2ccc([C@@H]3CNCCO3)cc2)cc1` [Example 266, (R)-4-(Methylthio)-N-(4-(morpholin-2-yl)phenyl)benzamide hydrochloride], the Ki in assay [1] (hydrochloride) is 0.0012 µM; in assay [2] (mouse TAAR1, HEK-293 membranes, first value of cell mouse/rat, hydrochloride), 0.0163 µM.
Consider `O=C(Nc1ccc([C@@H]2CNCCO2)cc1)Nc1ccc(C(F)(F)F)cc1` [Example 311, (R)-1-(4-(Morpholin-2-yl)phenyl)-3-(4-(trifluoromethyl)phenyl)urea hydrochloride], for which the Ki in assay [1] worked out at 0.0014 µM; in assay [2] (setting [3]), 0.0005 µM.
